Our source for the inhibition and Activity values is ChEMBL document CHEMBL4043147, “9,19-Cycloartenol glycoside G3 from Cimicifuga simplex regulates immune responses by modulating Th17/Treg ratio” (Bioorg Med Chem, 2017).

The source made the active and inactive calls. The calls are words filed in the database; no cut-off is given here.

The nature of test [1]: Inhibition of C57BL/6 mouse CD4-positive T cell differentiation at 6.25 uM relative to control. Type of test: functional. The conditions noted are these: C57BL/6, CD4-positive T cell.
The subject of the next test is CD4-positive T cell. Description: Inhibition of C57BL/6 mouse CD4-positive T cell differentiation assessed as decrease in T-bet mRNA level 0.1 to 10 uM by real-time PCR analysis. Type of test: functional, cell-based. A general note: In qPCR the cycle at which signal appears reflects the starting amount.
The test system of the next test is Th17. Description: Decrease in IL-17A mRNA level in C57BL/6 mouse Th17 cells 0.1 to 10 uM by real-time PCR analysis. Type of test: functional, cell-based.
Test [2] deals with Tyrosine-protein kinase JAK1/JAK2 (Mus musculus) (UniProt P52332+Q62120). Kind of test: Inhibition of JAK1/JAK2 in C57BL/6 mouse CD4-positive T cell assessed as reduction in IFNgamma-induced STAT3 phosphorylation at 1 to 10 uM pretreated for 1 hr followed by IFNgamma addition after 15 mins by Western blot analysis. (In general: A western blot detects proteins with antibodies after separation by electrophoresis.)
Chain of Tyrosine-protein kinase JAK1/JAK2 (Mus musculus) (P52332 whole entry, looked up): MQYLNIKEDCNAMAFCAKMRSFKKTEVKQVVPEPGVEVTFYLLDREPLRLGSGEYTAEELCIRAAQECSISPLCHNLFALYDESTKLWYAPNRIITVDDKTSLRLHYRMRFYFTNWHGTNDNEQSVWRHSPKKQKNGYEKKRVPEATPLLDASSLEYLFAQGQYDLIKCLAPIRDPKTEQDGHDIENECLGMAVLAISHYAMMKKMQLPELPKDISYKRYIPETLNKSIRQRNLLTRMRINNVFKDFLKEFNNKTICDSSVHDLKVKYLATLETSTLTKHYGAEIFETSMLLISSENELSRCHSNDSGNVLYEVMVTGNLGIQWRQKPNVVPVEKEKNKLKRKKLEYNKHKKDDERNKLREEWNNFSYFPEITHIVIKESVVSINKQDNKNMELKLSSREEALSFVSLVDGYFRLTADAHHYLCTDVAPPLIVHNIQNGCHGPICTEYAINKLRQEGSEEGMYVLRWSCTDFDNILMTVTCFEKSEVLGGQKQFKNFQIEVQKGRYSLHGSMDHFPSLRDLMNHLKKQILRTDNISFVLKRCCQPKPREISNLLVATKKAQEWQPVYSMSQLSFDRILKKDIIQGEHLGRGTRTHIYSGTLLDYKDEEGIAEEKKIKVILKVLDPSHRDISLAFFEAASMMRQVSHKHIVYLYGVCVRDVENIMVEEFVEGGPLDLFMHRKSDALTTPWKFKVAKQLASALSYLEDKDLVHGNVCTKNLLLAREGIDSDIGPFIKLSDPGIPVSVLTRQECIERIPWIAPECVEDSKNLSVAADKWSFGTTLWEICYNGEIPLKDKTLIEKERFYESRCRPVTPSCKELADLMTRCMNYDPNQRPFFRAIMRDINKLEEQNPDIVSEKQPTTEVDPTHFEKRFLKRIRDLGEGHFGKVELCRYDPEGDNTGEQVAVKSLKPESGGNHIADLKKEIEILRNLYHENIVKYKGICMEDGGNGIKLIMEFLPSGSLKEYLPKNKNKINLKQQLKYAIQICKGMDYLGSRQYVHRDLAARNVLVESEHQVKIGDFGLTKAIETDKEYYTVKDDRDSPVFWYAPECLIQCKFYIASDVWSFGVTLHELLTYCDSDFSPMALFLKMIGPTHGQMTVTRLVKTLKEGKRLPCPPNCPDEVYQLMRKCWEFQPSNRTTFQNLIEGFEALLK
Chain of Tyrosine-protein kinase JAK1/JAK2 (Mus musculus) (Q62120 whole entry, looked up): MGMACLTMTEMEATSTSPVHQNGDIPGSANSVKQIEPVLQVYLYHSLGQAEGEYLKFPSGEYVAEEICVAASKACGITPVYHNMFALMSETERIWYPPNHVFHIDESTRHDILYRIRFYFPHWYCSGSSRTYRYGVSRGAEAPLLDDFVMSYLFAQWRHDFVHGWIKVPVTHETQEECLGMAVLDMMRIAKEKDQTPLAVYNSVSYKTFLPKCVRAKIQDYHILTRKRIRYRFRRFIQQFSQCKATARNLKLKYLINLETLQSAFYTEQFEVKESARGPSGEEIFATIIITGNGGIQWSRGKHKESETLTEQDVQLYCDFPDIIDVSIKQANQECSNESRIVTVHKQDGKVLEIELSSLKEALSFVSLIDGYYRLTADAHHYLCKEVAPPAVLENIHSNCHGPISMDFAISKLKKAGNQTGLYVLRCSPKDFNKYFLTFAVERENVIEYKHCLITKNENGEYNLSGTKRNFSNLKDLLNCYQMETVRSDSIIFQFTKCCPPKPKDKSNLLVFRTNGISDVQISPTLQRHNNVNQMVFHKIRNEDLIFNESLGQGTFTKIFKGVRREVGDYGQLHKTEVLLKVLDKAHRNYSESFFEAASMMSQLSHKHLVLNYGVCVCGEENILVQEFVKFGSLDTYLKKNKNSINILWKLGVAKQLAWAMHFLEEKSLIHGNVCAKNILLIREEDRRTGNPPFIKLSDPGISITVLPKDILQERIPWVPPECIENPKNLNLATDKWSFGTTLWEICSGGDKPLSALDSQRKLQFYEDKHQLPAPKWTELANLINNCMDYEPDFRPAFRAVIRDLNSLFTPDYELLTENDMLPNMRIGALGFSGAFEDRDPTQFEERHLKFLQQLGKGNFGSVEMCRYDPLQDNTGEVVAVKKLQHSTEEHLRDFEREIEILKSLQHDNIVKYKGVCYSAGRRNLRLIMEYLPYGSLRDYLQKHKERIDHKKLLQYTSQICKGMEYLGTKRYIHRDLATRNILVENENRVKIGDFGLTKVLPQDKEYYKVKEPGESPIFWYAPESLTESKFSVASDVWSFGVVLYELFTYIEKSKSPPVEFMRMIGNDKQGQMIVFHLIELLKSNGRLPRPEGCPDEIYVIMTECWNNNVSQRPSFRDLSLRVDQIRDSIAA

The species named for test [3] is Mus musculus. Description: Inhibition of […]/TYK2 in C57BL/6 mouse CD4-positive T cell assessed as reduction in IL-12-induced STAT4 phosphorylation at 1 to 10 uM pretreated for 1 hr followed by IL-12 addition after 30 mins by Western blot analysis.
For test [4], the target named is Tyrosine-protein kinase JAK1/JAK3 (Mus musculus) (UniProt P52332+Q62137). Kind of test: Inhibition of JAK1/JAK3 in C57BL/6 mouse CD4-positive T cell assessed as reduction in IL-4-induced STAT6 phosphorylation at 1 to 10 uM pretreated for 1 hr followed by IL-4 addition after 15 mins by Western blot analysis.
Chain of Tyrosine-protein kinase JAK1/JAK3 (Mus musculus) (P52332 whole entry, looked up): as the sequence (P52332 whole entry, looked up) above
Chain of Tyrosine-protein kinase JAK1/JAK3 (Mus musculus) (Q62137 whole entry, looked up): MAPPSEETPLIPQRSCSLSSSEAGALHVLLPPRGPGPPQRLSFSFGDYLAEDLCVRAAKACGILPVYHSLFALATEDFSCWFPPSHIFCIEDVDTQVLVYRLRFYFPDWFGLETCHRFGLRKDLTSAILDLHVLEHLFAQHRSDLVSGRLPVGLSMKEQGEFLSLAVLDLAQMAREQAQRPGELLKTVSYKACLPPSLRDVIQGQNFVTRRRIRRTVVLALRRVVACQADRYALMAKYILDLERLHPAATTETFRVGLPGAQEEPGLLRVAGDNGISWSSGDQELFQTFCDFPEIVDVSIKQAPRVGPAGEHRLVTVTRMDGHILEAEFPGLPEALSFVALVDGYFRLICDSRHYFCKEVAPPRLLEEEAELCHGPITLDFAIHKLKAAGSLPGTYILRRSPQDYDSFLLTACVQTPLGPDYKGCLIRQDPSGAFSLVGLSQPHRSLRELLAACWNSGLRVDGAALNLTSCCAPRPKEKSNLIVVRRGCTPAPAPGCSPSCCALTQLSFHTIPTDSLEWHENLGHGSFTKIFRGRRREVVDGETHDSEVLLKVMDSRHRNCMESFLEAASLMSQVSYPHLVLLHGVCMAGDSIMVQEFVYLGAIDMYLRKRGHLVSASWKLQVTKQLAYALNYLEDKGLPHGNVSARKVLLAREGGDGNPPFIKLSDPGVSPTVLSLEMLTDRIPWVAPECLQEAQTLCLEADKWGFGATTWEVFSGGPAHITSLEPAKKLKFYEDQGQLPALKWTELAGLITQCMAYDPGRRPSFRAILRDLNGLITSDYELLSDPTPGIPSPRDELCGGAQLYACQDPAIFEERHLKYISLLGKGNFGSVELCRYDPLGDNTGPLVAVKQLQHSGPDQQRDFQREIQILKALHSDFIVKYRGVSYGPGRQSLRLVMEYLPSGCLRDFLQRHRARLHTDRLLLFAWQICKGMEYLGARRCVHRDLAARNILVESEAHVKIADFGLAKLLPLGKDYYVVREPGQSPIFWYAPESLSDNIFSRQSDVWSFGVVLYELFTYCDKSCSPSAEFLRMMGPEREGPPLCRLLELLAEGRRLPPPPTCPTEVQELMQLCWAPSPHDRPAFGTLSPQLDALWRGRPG
The test system of test [5] is Mus musculus. Kind of test: Anti-inflammatory activity in IL-23 induced mouse psoriasis-like skin inflammation model assessed as reduction in IL-22 mRNA levels at 2 to 10 uM applied topically starting 1 day prior to IL-23 induction and continuing every other day for 14 days measured after 24 hrs post last dose by real-time PCR analysis. It is filed as functional.
For test [6], the system named is Mus musculus. Description: Anti-inflammatory activity in IL-23 induced mouse psoriasis-like skin inflammation model assessed as reduction in CCL17 mRNA levels at 2 to 10 uM applied topically starting 1 day prior to IL-23 induction and continuing every other day for 14 days measured after 24 hrs post last dose by real-time PCR analysis. Type of test: functional.
The subject of test [7] is Mus musculus. Description: Anti-inflammatory activity in IL-23 induced mouse psoriasis-like skin inflammation model assessed as reduction in CCL27 mRNA levels at 2 to 10 uM applied topically starting 1 day prior to IL-23 induction and continuing every other day for 14 days measured after 24 hrs post last dose by real-time PCR analysis. It is filed as functional.
Test [8] deals with Mus musculus. Kind of test: Anti-inflammatory activity in IL-23 induced mouse psoriasis-like skin inflammation model assessed as reduction in CCR6 mRNA levels at 2 to 10 uM applied topically starting 1 day prior to IL-23 induction and continuing every other day for 14 days measured after 24 hrs post last dose by real-time PCR analysis. It is filed as functional.
For test [9], the system named is Mus musculus. Description: Anti-inflammatory activity in IL-23 induced mouse psoriasis-like skin inflammation model assessed as reduction in IL-6 mRNA levels at 2 to 10 uM applied topically starting 1 day prior to IL-23 induction and continuing every other day for 14 days measured after 24 hrs post last dose by real-time PCR analysis. It is filed as functional.

For `CC(=O)O[C@@H]1C[C@@]23C[C@@]24CC[C@H](O[C@@H]2O[C@H](CO)[C@H](O)[C@H](O)[C@H]2O)C(C)(C)[C@@H]4CC[C@H]3[C@]2(C)C[C@]3(O)O[C@H](C(=O)[C@@H]4OC4(C)C)[C@@H](C)[C@@H]3[C@@]12C`, the inhibition at 6.25 µM in test [1] turned out to be 29.6%. The inhibition entry (with CD4-positive T cell; in test [2]; in the test listed under Mus musculus [3]; in [4]) was “Active” each time. In addition, the outcome in the test on Th17, in the test on Mus musculus [5], in the test with Mus musculus [6], in the test with Mus musculus [7], with Mus musculus [8] and in the test with Mus musculus [9] was Active.

One may read the inhibition as the share of the control response that was lost under treatment.
